# Source: US12037324B2, “Biarylmethyl heterocycles” (Université de Montréal, priority 2016, dated 2024)
# What was measured:
# AGTR1 = target: T1, AGTR1 (Homo sapiens, UniProt P30556); assay: DiscoveRx β-arrestin2 recruitment assay (enzyme complementation, Pathunter CHO-K1 AGTR1 β-arrestin cell line); format: cell-based; conditions: DiscoveRx β-arrestin2 recruitment
# T1 construct: host or cells: Pathunter CHO-K1 AGTR1 β-arrestin cell line (CHO-K1)
# T1 sequence (P30556 1-359): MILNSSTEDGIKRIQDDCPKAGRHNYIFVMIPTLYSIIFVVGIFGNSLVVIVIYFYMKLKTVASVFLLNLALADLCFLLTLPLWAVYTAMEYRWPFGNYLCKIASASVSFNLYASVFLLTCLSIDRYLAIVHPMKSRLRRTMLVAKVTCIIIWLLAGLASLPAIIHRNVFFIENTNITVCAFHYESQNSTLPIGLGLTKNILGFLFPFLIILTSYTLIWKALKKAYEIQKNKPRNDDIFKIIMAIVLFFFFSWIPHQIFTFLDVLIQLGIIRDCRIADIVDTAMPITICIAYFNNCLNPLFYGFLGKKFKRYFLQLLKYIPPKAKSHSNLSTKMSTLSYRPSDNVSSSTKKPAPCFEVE
# In short: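 CHO-K1 cells expressing AGTR1 with β-arrestin2 enzyme-complementation reporter, plated 14-16 h ahead in 1% serum medium, then exposed to compounds for 90 min at 37° C. Chemiluminescence read after 1 h detection. EC50 (agonist) or IC50 (antagonist) from 4-parameter logistic fit; activity as percentage of All maximal effect.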
# hAT1R [1] = target: T2, hAT1R (Homo sapiens, UniProt P30556); assay: BRET β-arrestin2 biosensor assay, higher receptor expression (hAT1R 5 ng/well), HEK293 cells; format: cell-based; conditions: for EC50: High AT1R Expression
# T2 sequence (P30556 1-359): T1 sequence (P30556 1-359)
# hAT1R [2] = target: T2, hAT1R; assay: cell-based; conditions: agonist mode; for EC50: read-out: BRET P63 EC50
# hAT1R [3] = target: T2, hAT1R; assay: cell-based; conditions: section of the 42nd table ending at r951, example numbering restarts after the DiscoveRx section; read-out: β-arrestin2 EC50
# hAT1R [4] = target: T2, hAT1R; assay: BRET Gq biosensor assay, agonist response, HEK293 cells; format: cell-based; conditions: section of the 42nd table directly before the BRET P63 section
# In short: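 HEK293 cells co-transfected with signal-peptide-optimized hAT1R plus Gαq-Rluc, Gβ1 and GFP-Gγ1, assayed 48 h later in Tyrode's buffer pH 7.4. Coelenterazine (2 μM final) added, then compound; BRET2 (515/410 nm) read after 5 min at room temperature. EC50 by 4-parameter fit, normalized to unstimulated (0%) and maximal AngII (100%).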
Structure (SMILES),EC50 (AGTR1) [nM],DiscoveRx β-arrestin2 Ymax (%) (AGTR1; maximal response),BRET β-Arrestin2 High AT1R Expression Ymax (%) (hAT1R [1]),EC50 (hAT1R [1]) [nM],EC50 (hAT1R [2]) [nM],EC50 (hAT1R [3]) [nM],EC50 (hAT1R [4]) [nM],DiscoveRx β-arrestin2 Ymax (%) (AGTR1),BRET P63 Ymax (hAT1R [2]) [%]
CCCCc1nc(Cl)c(C(=O)O)n1Cc1ccc(-c2cc(-c3c[nH]c4ccccc34)ccc2-c2nn[nH]n2)cc1 [Example 391],45.8,23.3,78.3,11.7,> 100000,11,181,–,–
"CCCc1nc(CC)c(C(=O)O)n1Cc1ccc(-c2cc(-c3ccccc3)ccc2-c2nn[nH]n2)cc1 [Example 396, 1-((6′-(2H-tetrazol-5-yl)-[1,1′:3′,1″-terphenyl]-4-yl)methyl)-4-ethyl-2-propyl-1H-imidazole-5-carboxylic acid]",5,57.8,88.8,6.4,> 100000,14.1,274,–,–
"CCCCc1nc(Cl)c(C(=O)O)n1Cc1ccc(-c2cc(-c3ccccc3)ccc2-c2noc(=O)[nH]2)cc1 [Example 404, 2-butyl-4-chloro-1-((6′-(5-oxo-4,5-dihydro-1,2,4-oxadiazol-3-yl)-[1,1′:3′,1″-terphenyl]-4-yl)methyl)-1H-imidazole-5-carboxylic acid]",9.6,38.6,89.7,14.3,> 10000,69.4,70.4,–,–
"CCCCc1nc(Cl)c(C(=O)O)n1Cc1ccc(-c2cc(-c3ccccc3)ccc2C(=O)O)cc1 [Example 410, 2-butyl-1-((6′-carboxy-[1,1′:3′,1″-terphenyl]-4-yl)methyl)-4-chloro-1H-imidazole-5-carboxylic acid]",26.9,41.9,69.7,82.1,> 10000,98.2,> 100000,–,–
"CCCCc1nc(Cl)c(C(=O)O)n1Cc1ccc(-c2cc(C3CCCCC3)ccc2-c2nn[nH]n2)cc1 [Example 424, 2-butyl-4-chloro-1-((5′-cyclohexyl-2′-(2H-tetrazol-5-yl)-[1,1′-biphenyl]-4-yl)methyl)-1H-imidazole-5-carboxylic acid]",99.3,28.6,76.7,67.8,> 100000,35.3,2790,–,–
CCCCC(=O)N(Cc1ccc(-c2cc(-c3cc(C)ccn3)ccc2-c2nn[nH]n2)cc1)[C@H](C(=O)O)C(C)C [Example 445],37.7,–,91.3,9.8,103,36,140,61.2,24.0
